Key:
[1] = test system: community-dwelling subjects with mild or moderate dementia; settings: cited from earlier work
[2] = test system: subjects with early-stage dementia; settings: 44 subjects with early-stage dementia; cited from earlier work
[3] = test system: popliteal lymph node T-cells and spleen cells; assay: Proliferation assay in mouse strains immunized but not fed the peptide; type: in vivo, SJL/J, DBA/1, C57BL/6, BALB/C and C3H/EB mice; settings: one in vitro stimulation, Figures 2A, 2B
Description: (§1) Mice were immunized with 100 µg of [1-40]β-amyloid peptide ([1-40]Aβ) emulsified in 50 µg CFA (Difco Laboratories, Inc.). On day 10, popliteal lymph nodes and spleens were removed and for T-cell proliferation and cytokine production.
Figure 2A compares proliferation of popliteal lymph node T-cells from SJL/J, DBA/I, C57BL/6, BALB/C and C3H/EB mice immunized with [1-40]β-amyloid peptide. Figure 2B compares proliferation in spleen cells from SJL/J, DBA/1, C57BL/6, BALB/C and C3H/EB mice immunized with [1-40]β-amyloid peptide. […] It should be noted that T-cells for the experiment shown in this Example are stimulated with antigen only once in vitro prior to the proliferation assay. Additional stimulations would enlist response from the apparent non-responder strain C57BL/6 and (DBA/1). This experiment provides information about the responding ability of cells from various strains and was useful in designing the subsequent experiments described below. It is believed to be advantageous to select "good responders" (such as C3H/EB) but not "too high responders" (SJL/J was thus not chosen).

[4] = test system: popliteal lymph node and spleen T-cells; assay: Cytokine profiles (capture ELISA) after feeding or nasal administration and immunization of non-transgenic littermates; type: in vivo, SWISSXXB6D2F1 mice; settings: then immunized, ten days later
Description: Levels of IL-4, IL-2, IL-10, TGF-β and IFNγ in supernatants were determined by capture ELISA as described. […] Briefly, supernatants were added to microtiter (Maxisorp) plates, previously coated with rat anti-mouse IL-4, IL-2, IL-10, TGF-β or IFN-γ monoclonal antibodies (capture antibodies, Pharmingen; 1 µg/ml at 4°C over night) and blocked with BSA-diluent/blocking solution (KPL). Plates were washed, and standards and samples were added for another overnight incubation at 4°C. Bound cytokine was detected by the addition of ABTS (Kirkegaard & Perry). Wells were washed, and cytokine levels determined using biotinylated rat anti-mouse IL-4, IL-2, IL-10, TGF-β or IFN-γ monoclonal antibodies (detecting antibodies, Pharmingen) and a peroxide visualization system (peroxidase-labeled streptavidin). IL-2 and IL-4 were analyzed after 24 hours of cell incubation with antigen, IL-10 and IFN-γ after 40 hours and TGF-β after 72 hours. Cytokine levels were calculated from a log-log plot of absorbance vs. concentration of recombinant cytokines (Pharmingen), and results are expressed in pg/mL (for IL-4, IL-2, IL-10, TGF-β and IFN-γ). Threshold sensitivities of ELISA assays were 5 pg/mL, 10 pg/mL and 2.5 ng/mL for IL-4, IL-2 and IFN-γ, respectively.
Feeding and Immunization: SWISSXXB6D2F1 mice were fed with [1-40]Aβ 75 µg/feeding x 5 or nasally administered with 25 µg/application x 3, and 2 days after the last treatment, were immunized with 100 µg [1-40]Aβ in 50 µg CFA. Ten days later, the popliteal lymph node and spleen T-cells were checked for cytokine production as described above.

[5] = test system: popliteal lymph node and spleen T-cells; assay: Cytokine production assay (capture ELISA) after feeding or nasal administration and immunization; type: in vivo, C3H/EB mice; settings: then immunized
Description: C3H/eb mice were fed [1-40]Aβ 500 µg/feeding, 50 µg/feeding, or 5 µg/feeding every day for 5 days (200 µl/feeding). Nasal administration was given at 50 µg/application or 5 µg/application every day for 3 days (10 µl/application).
This experiment also served as a preliminary dose response experiment for this mouse strain.
Figure 5A illustrates the result in secretion of the Th1 immunostimulatory (proinflammatory) cytokine IL-2 in popliteal lymph nodes from C3H/EB mice at various feeding levels (5, 50 and 500 µg/feeding for 5 days) and when nasally administered (5 or 50 µg/application for 3 days) [1-40]β-amyloid peptide prior to immunization (2 days after the last feeding or nasal application) with 100 µg [1-40]β-amyloid peptide in 50 µg CFA. […] Based on the results for Fig. 5A, and Figs. 5B, 6A, 6B, and 7A, 7B, it was decided to use 25 µg nasally and 75 µg orally in subsequent experiments.

PLN [6] = settings: mucosally administered, immunized 10 days prior to sacrifice
Description: Levels of IL-4, IL-2, IL-10, TGF-β and IFNγ in supernatants were determined by capture ELISA as described. Friedman, A., et al., Proc. Nat'l Acad. Sci. U.S.A., 91, 6688 (1994); Yang, X., et al., J. Immunol., 150, 4354 (1993). Briefly, supernatants were added to microtiter (Maxisorp) plates, previously coated with rat anti-mouse IL-4, IL-2, IL-10, TGF-β or IFN-γ monoclonal antibodies (capture antibodies, Pharmingen; 1 µg/ml at 4°C over night) and blocked with BSA-diluent/blocking solution (KPL). Plates were washed, and standards and samples were added for another overnight incubation at 4°C. Bound cytokine was detected by the addition of ABTS (Kirkegaard & Perry). Wells were washed, and cytokine levels determined using biotinylated rat anti-mouse IL-4, IL-2, IL-10, TGF-β or IFN-γ monoclonal antibodies (detecting antibodies, Pharmingen) and a peroxide visualization system (peroxidase-labeled streptavidin). IL-2 and IL-4 were analyzed after 24 hours of cell incubation with antigen, IL-10 and IFN-γ after 40 hours and TGF-β after 72 hours. Cytokine levels were calculated from a log-log plot of absorbance vs. concentration of recombinant cytokines (Pharmingen), and results are expressed in pg/mL (for IL-4, IL-2, IL-10, TGF-β and IFN-γ). Threshold sensitivities of ELISA assays were 5 pg/mL, 10 pg/mL and 2.5 ng/mL for IL-4, IL-2 and IFN-γ, respectively.
Two mice from each of groups 1, 5, and 8 were immunized with β-amyloid peptide 10 days prior to sacrifice.

β-amyloid = assay: Immunoassay of mouse antisera for IgG subtypes against β-amyloid (Down syndrome brain sections as capture antigen); type: in vivo, PDAPP mice; settings: nasally treated with 25 µg; over controls; Figure 11
Description: In these experiments, the antisera were tested in an immunoassay for the presence of IgG subtypes against β-amyloid. In the immunoassay, Down syndrome brain sections, which contain large amounts of β-amyloid, were employed as "capture" antigen. IgG in the mice antisera were bound to the sections, and the presence of IgG subtypes in the bound antibodies distinguished by secondary (2°) antibodies specific for each subtype. […] These antibodies are associated with Th2 type cellular immune responses.

PDAPP mice [7] = assay: β-amyloid plaque load in brain sections (visual and computer assisted image analysis); type: in vivo
Description: Transgenic PDAPP mice were acquired from Athena Neurosciences, Inc. (South San Francisco, CA). These mice express a human gene encoding a mutant form of β-amyloid precursor protein and progressively develop β-amyloid deposits in the hippocampus and cerebral cortex in a manner similar to that seen in Alzheimer's disease. The β-amyloid deposits in the transgenic mice become associated with activated microglial cells, reactive astrocytes and other features of the periplaque inflammatory response seen in Alzheimer's disease brains.
4 to 5 month old PDAPP mice were fed or nasally administered either [1-40]β-amyloid peptide or a control protein (myelin basic protein or ovalbumin in amounts of 50 or 500 µg per feeding). Administration was carried out three (nasal) or five times consecutively (oral) during an initial one week period, and then on a weekly basis until the animals were between 11 and 12 months old. The orally administered β-amyloid peptide was in a dosage of 10 or 100 µg, and the nasally administered β-amyloid was in a dosage of 5 or 25 µg. […]
Specificially, results are shown for both visual and computer assisted image analysis of β-amyloid plaque load for the 8 experimental groups of mice that were tested; values are shown for each mouse in the relevant group. […] The visual assessment of plaque load was scored according to the table shown at the bottom of Figure 9A.

[8] = test system: popliteal lymph node T-cells; assay: Proliferation assay ([3H]thymidine incorporation) of popliteal lymph node cells after feeding or nasal treatment and immunization; type: in vivo, SWISSXBDF1 mice; settings: fed or nasally treated; ten days after foot pad immunization with 100 µg peptide in 50 µg CFA; Figure 1B
Description: (§2) Female BALB/C (6-8 weeks of age); DBA/2; C3H/eb; C47b1/6; SWISSXBDF1 or SHL/J mice were used. The animals were maintained in a temperature- and light-controlled environment with free access to feed and water. Each experimental group contained no fewer than 5 mice.
as §1

PLN [9] = settings: mice of certain strains (e.g., C3H/EB and DBA/1) mucosally tolerized
spleen T-cells = assay: Proliferation assay ([3H]thymidine incorporation) of spleen cells after feeding or nasal treatment and immunization; type: in vivo, SWISSXBDF1 mice; settings: fed (75 µg/feeding x 5) or nasally treated (25 µg x 3); immunized two days after last treatment with 100 µg peptide in 50 µg CFA; Figure 1A
Description: as §2, §1

PDAPP mice [10] = assay: Immunoreactivity tests on brain sections (immunological markers and cytokines); type: in vivo; settings: mice treated mucosally; Figures 9A, 9B
Description: 4 to 5 month old PDAPP mice were fed or nasally administered either [1-40]β-amyloid peptide or a control protein (myelin basic protein or ovalbumin in amounts of 50 or 500 µg per feeding). Administration was carried out three (nasal) or five times consecutively (oral) during an initial one week period, and then on a weekly basis until the animals were between 11 and 12 months old. The orally administered β-amyloid peptide was in a dosage of 10 or 100 µg, and the nasally administered β-amyloid was in a dosage of 5 or 25 µg.
The feeding and nasal administration of β-amyloid peptide, or ovalbumin to PDAPP mice was conducted among the following mice groups: Group 0: Non treated; mice nos. 0.1-0.7 Group 1: fed [1-40]β-amyloid peptide 100µg/feeding; mice nos. 1.1-1.9 Group 2: fed [1-40]β-amyloid peptide 10µg/feeding; mice nos. 2.1-2.9 Group 3: nasal [1-40]β-amyloid peptide 25µg/treatment; mice nos. 3.1-3.9 Group 4: nasal [1-40]β-amyloid peptide 5µg/treatment; mice nos. 4.1-4.7 Group 5: fed ovalbumin 500µg/feeding; mice nos. 5.1-5.6 Group 6: nasal ovalbumin 50µg/treatment; mice nos. 6.1-6.6 Group 7: fed MBP 500µg/feeding; mice nos. 7.1-7.5 Group 8: nasal MBP 50µg/treatment; mice nos. 8.1-8.6
At the end of the treatment period, the mice were sacrificed and brains, popliteal lymph nodes and spleens removed. […]

[11] = at least pursuant to nasal administration of 25 µg
[12] = fed 75 µg/feeding x 5 or nasal 25 µg/application x 3

Cl.Nc1c2c(nc3ccccc13)CCCC2.O [TACRINE, 1,2,3,4-tetrahydro-9-acridinamine monohydrochloride monohydrate]
efficacy for treating Alzheimer's disease ([1]; community-dwelling subjects with mild or moderate dementia): only partially effective
serum aminotransferase levels ([1]; safety concern, may indicate hepatocellular injury): elevation

COc1ccc2c(c1)c(CC(=O)O)c(C)n2C(=O)c1ccc(Cl)cc1 [indomethacin]
mental function during the study [2]: did not deteriorate

[1-40]β-amyloid peptide: β-amyloid peptide fragment [1-40], sequence derived from β-amyloid precursor protein; antigen given orally or nasally
proliferative response to the peptide after immunization [3]: many strains of normal mice (not transgenic mice, not Alzheimer's model) respond
in vitro IFN-γ response to Aβ stimulation [4, 11]: reduced in vitro response
in vitro IL-2 response to Aβ stimulation [4, 11]: reduced in vitro response
in vitro IL-10 response to Aβ stimulation [4, 12]: increased response
in vitro TGF-β response to Aβ stimulation [4, 12]: increased response
secretion of IL-2 in spleen cells ([5]; at 5 µg fed and 50 µg nasal, Fig. 5B): Suppression of IL-2 secretion was clear
secretion of IL-10 ([5]; fed 5, 50 or 500 µg/feeding for 5 days or nasal 5 or 50 µg/application for 3 days, Figures 4A, 4B): significant enhancement of IL-10 in at least one of spleen and PLN cells treated with at least one dose
secretion of TGF-β in spleen cells ([5]; fed 5 and 50 µg/feeding for 5 days or nasal 50 µg/application for 3 days, Figure 6B): enhanced secretion
secretion of IL-2 in popliteal lymph nodes ([5]; nasal administration (5 or 50 µg/application for 3 days), Fig. 5A): Suppression of IL-2 secretion was clear
production of IL-2 (PLN [6]; Figure 12): decreased production
production of IFN-γ (PLN [6]; Figure 14): decreased production
production of IL-6 (PLN [6]; Figure 15): decreased production
production of IL-10 (PLN [6]; Figure 16): increased production
production of TGF-β (PLN [6]; Figure 17): increased production
IgG1 class antibodies against β-amyloid in antisera (β-amyloid): increase
difference in β-amyloid deposits versus controls (1-tailed Mann-Whitney U-test) (PDAPP mice [7]; nasally administered 25 µg): statistically significant
development of β-amyloid deposits (PDAPP mice [7]; oral 10 or 100 µg or nasal 5 or 25 µg, weekly from 4-5 to 11-12 months of age, versus control groups): fewer β-amyloid deposits
proliferation in popliteal lymph nodes [8]: suppression of proliferation
PLN proliferation (PLN [9]): decreased PLN proliferation
proliferation of spleen cells (spleen T-cells): significant suppression of proliferation
microglial activation in the brain (PDAPP mice [10]): decreased microglial activation
production of inflammatory cytokines in the brain (PDAPP mice [10]): decreased production

From patent publication EP1033998B1, “SUPPRESSING BETA-AMYLOID-RELATED CHANGES IN ALZHEIMER'S DISEASE” (Neuralab, Ltd., priority 1997, dated 2005)
